As a reminder, the TD50 is the dose at which the toxic effect under study appears in half of the subjects.

The subject of the data set is rodent lifetime carcinogenesis bioassay, tumor incidence TD50. Kind of data set: chronic cancer bioassays in animals – CPDB, compiled studies (AID 1745844).

Active and inactive are the calls of the source. No rule for the calls is given here.

As to `CC(O)CCl` (centres undefined), the carcinogen call is, setting by setting: (mouse, strain B6C3F1, females, in drinking water, site: any site (literature study), lesion: several types, types named in the paper, dosed 105 weeks, study length 105 weeks) “negative (inactive)”; (mouse, strain B6C3F1, males, in drinking water, site: any site (literature study), lesion: several types, types named in the paper, dosed 104 weeks, study length 104 weeks) “negative (inactive)”; (rat, strain Fischer 344, females, in drinking water, site: any site (literature study), lesion: several types, types named in the paper, dosed 104 weeks, study length 104 weeks) “negative (inactive)”; (rat, strain Fischer 344, males, in drinking water, site: any site (literature study), lesion: several types, types named in the paper, dosed 104 weeks, study length 104 weeks) “negative (inactive)”. For the same molecule, the TD50 worked out at 1040 mg/kg/day (mouse, strain B6C3F1, females, in drinking water, site: liver, lesion: hepatocellular adenoma + hepatoblastoma + hepatocellular carcinoma, dosed 105 weeks, study length 105 weeks); 707 mg/kg/day (rat, strain Fischer 344, females, in drinking water, site: liver, lesion: hepatocellular adenoma + hepatoblastoma + hepatocellular carcinoma, dosed 104 weeks, study length 104 weeks); 427 mg/kg/day (rat, strain Fischer 344, males, in drinking water, site: liver, lesion: hepatocellular adenoma + hepatoblastoma + hepatocellular carcinoma, dosed 104 weeks, study length 104 weeks).
Consider `CCCCCN(N=O)C(N)=O`, for which the TD50 is 19.9 mg/kg/day (rat, strain Donryu, females, in drinking water, site: all sites, lesion: myelocytic leukemia, dosed 65 weeks, study length 65 weeks); 1.93 mg/kg/day (rat, strain Donryu, females, in drinking water, site: any site (literature study), lesion: several types, types named in the paper, dosed 65 weeks, study length 65 weeks); 1.15 mg/kg/day (rat, strain Donryu, females, in drinking water, site: digestive tract, lesion: several types, types named in the paper, dosed 65 weeks, study length 65 weeks); 0.967 mg/kg/day (rat, strain Donryu, females, in drinking water, site: esophagus, lesion: one or several types, types not named, dosed 65 weeks, study length 65 weeks); 1.35 mg/kg/day (rat, strain Donryu, females, in drinking water, site: forestomach, lesion: one or several types, types not named, dosed 65 weeks, study length 65 weeks); 13.3 mg/kg/day (rat, strain Donryu, females, in drinking water, site: liver, lesion: hepatocellular adenoma, dosed 65 weeks, study length 65 weeks). Moreover, the TD50 runs as follows: (rat, strain Donryu, females, in drinking water, site: mammary gland, lesion: several types, types named in the paper, dosed 65 weeks, study length 65 weeks) 11.9 mg/kg/day; (rat, strain Donryu, males, in drinking water, site: all sites, lesion: myelocytic leukemia, dosed 65 weeks, study length 65 weeks) 9.17 mg/kg/day; (rat, strain Donryu, males, in drinking water, site: any site (literature study), lesion: several types, types named in the paper, dosed 65 weeks, study length 65 weeks) 0.541 mg/kg/day; (rat, strain Donryu, males, in drinking water, site: digestive tract, lesion: several types, types named in the paper, dosed 65 weeks, study length 65 weeks) 0.532 mg/kg/day; (rat, strain Donryu, males, in drinking water, site: esophagus, lesion: one or several types, types not named, dosed 65 weeks, study length 65 weeks) 1.44 mg/kg/day; (rat, strain Donryu, males, in drinking water, site: forestomach, lesion: one or several types, types not named, dosed 65 weeks, study length 65 weeks) 0.532 mg/kg/day. Also, the TD50 was 0.478 mg/kg/day (rat, strain Fischer 344, females, by gavage, site: forestomach, lesion: one or several types, types not named, dosed 50 weeks, study length 104 weeks); 4.7 mg/kg/day (rat, strain Fischer 344, females, by gavage, site: liver, lesion: one or several types, types not named, dosed 50 weeks, study length 104 weeks); 1.09 mg/kg/day (rat, strain Fischer 344, females, by gavage, site: lung, lesion: several types, types named in the paper, dosed 50 weeks, study length 104 weeks); 2.98 mg/kg/day (rat, strain Fischer 344, females, by gavage, site: mammary gland, lesion: adenocarcinoma, dosed 50 weeks, study length 104 weeks); 0.934 mg/kg/day (rat, strain Fischer 344, females, by gavage, site: uterus, lesion: several types, types named in the paper, dosed 50 weeks, study length 104 weeks); 0.865 mg/kg/day (rat, strain Fischer 344, males, by gavage, site: all sites, lesion: mesothelioma, dosed 50 weeks, study length 104 weeks). For the same molecule, where the note is “rat, strain Fischer 344, males, by gavage, site: lung, lesion: several types, types named in the paper, dosed 50 weeks, study length 104 weeks”, the TD50 is 0.546 mg/kg/day. Besides, the carcinogen call (rat, strain Fischer 344, males, by gavage, site: forestomach, lesion: one or several types, types not named, dosed 50 weeks, study length 104 weeks) is “positive”.
For the molecule `O=NN1CCCCCCC1`, the TD50 is 0.159 mg/kg/day (rat, strain Fischer 344, males, in drinking water, site: esophagus, lesion: basal-cell carcinoma, dosed 50 weeks, study length 125 weeks); 0.118 mg/kg/day (rat, strain Fischer 344, males, in drinking water, site: esophagus, lesion: several types, types named in the paper, dosed 25 weeks, study length 115 weeks); 0.0735 mg/kg/day (rat, strain Fischer 344, males, in drinking water, site: esophagus, lesion: several types, types named in the paper, dosed 100 weeks, study length 115 weeks); 0.198 mg/kg/day (rat, strain Fischer 344, males, in drinking water, site: liver, lesion: several types, types named in the paper, dosed 100 weeks, study length 115 weeks); 0.171 mg/kg/day (rat, strain Fischer 344, males, in drinking water, site: tongue, lesion: basal-cell carcinoma, dosed 50 weeks, study length 125 weeks); 0.105 mg/kg/day (rat, strain Fischer 344, males, in drinking water, site: tongue, lesion: basal-cell carcinoma, dosed 100 weeks, study length 115 weeks). Moreover, the TD50 reads like this: (rat, strain Fischer 344, males, in drinking water, site: upper gastrointestinal tract, lesion: carcinoma, dosed 25 weeks, study length 115 weeks) 0.0363 mg/kg/day; (rat, strain Fischer 344, males, in drinking water, site: upper gastrointestinal tract, lesion: several types, types named in the paper, dosed 25 weeks, study length 115 weeks) 0.0512 mg/kg/day; (rat, strain Fischer 344, males, in drinking water, site: upper gastrointestinal tract, lesion: several types, types named in the paper, dosed 50 weeks, study length 125 weeks) 0.0571 mg/kg/day; (rat, strain Fischer 344, males, in drinking water, site: upper gastrointestinal tract, lesion: several types, types named in the paper, dosed 100 weeks, study length 115 weeks) 0.0292 mg/kg/day. Besides, for the setting “rat, strain Fischer 344, males, in drinking water, site: liver, lesion: hepatocellular carcinoma, dosed 50 weeks, study length 125 weeks”, the carcinogen call is “positive”.
`O=NN1CCC(=O)NC1=O`: the TD50 is, setting by setting: (rat, strain MRC-Wistar, females, in drinking water, site: any site (literature study), lesion: several types, types named in the paper, dosed 41 weeks, study length 70 weeks) 0.13 mg/kg/day; (rat, strain MRC-Wistar, females, in drinking water, site: liver, lesion: hepatocellular carcinoma, dosed 41 weeks, study length 70 weeks) 0.104 mg/kg/day; (rat, strain MRC-Wistar, females, in drinking water, site: liver, lesion: several types, types named in the paper, dosed 41 weeks, study length 70 weeks) 0.104 mg/kg/day; (rat, strain MRC-Wistar, males, in drinking water, site: any site (literature study), lesion: several types, types named in the paper, dosed 41 weeks, study length 70 weeks) 0.125 mg/kg/day; (rat, strain MRC-Wistar, males, in drinking water, site: liver, lesion: hepatocellular carcinoma, dosed 41 weeks, study length 70 weeks) 0.0932 mg/kg/day; (rat, strain MRC-Wistar, males, in drinking water, site: liver, lesion: several types, types named in the paper, dosed 41 weeks, study length 70 weeks) 0.0932 mg/kg/day.
Take `O=NN1CCNCC1`: the TD50 is, setting by setting: (rat, strain MRC, females, in drinking water, site: any site (literature study), lesion: several types, types named in the paper, dosed 60 weeks, study length 127 weeks) 5.51 mg/kg/day; (rat, strain MRC, males, in drinking water, site: any site (literature study), lesion: several types, types named in the paper, dosed 60 weeks, study length 127 weeks) 21.6 mg/kg/day; (rat, strain MRC, males, in drinking water, site: liver, lesion: hepatoma, dosed 60 weeks, study length 127 weeks) 6.52 mg/kg/day.
In the case of `NC(=S)NNS(=O)(=O)c1ccccc1`, the TD50 by setting is: (mouse, strain Swiss, females, by gavage, site: liver, lesion: liver-cell tumor, dosed 50 weeks, study length 60 weeks) 46.6 mg/kg/day; (mouse, strain Swiss, females, by gavage, site: lung, lesion: one or several types, types not named, dosed 50 weeks, study length 60 weeks) 46.6 mg/kg/day.
Take `ClCC1CO1` (centres undefined): the TD50 is, setting by setting: (mouse, strain Ha/ICR, females, i.p., site: lung, lesion: papillary tumor, dosed 64 weeks, study length 64 weeks) 28.9 mg/kg/day; (rat, strain Sprague-Dawley, males, inhaled, site: nasal cavity, lesion: squamous-cell carcinoma, dosed 54 weeks, study length 136 weeks) 421 mg/kg/day; (rat, strain Wistar, females, by gavage, site: forestomach, lesion: squamous-cell carcinoma, dosed 104 weeks, study length 104 weeks) 2.55 mg/kg/day; (rat, strain Wistar, males, by gavage, site: any site (literature study), lesion: several types, types named in the paper, dosed 104 weeks, study length 104 weeks) 4.83 mg/kg/day; (rat, strain Wistar, males, by gavage, site: forestomach, lesion: squamous-cell carcinoma, dosed 104 weeks, study length 104 weeks) 3.53 mg/kg/day; (rat, strain Wistar, males, by gavage, site: liver, lesion: one or several types, types not named, dosed 104 weeks, study length 104 weeks) 218 mg/kg/day (inactive). The carcinogen call by setting is: (rat, strain Wistar, females, by gavage, site: liver, lesion: neoplastic nodule, dosed 104 weeks, study length 104 weeks) “negative (inactive)”; (rat, strain Wistar, males, by gavage, site: liver, lesion: hepatocellular carcinoma, dosed 104 weeks, study length 104 weeks) “negative (inactive)”; (rat, strain Wistar, males, by gavage, site: liver, lesion: neoplastic nodule, dosed 104 weeks, study length 104 weeks) “negative (inactive)”.
For `CC(C)NCC(O)c1ccc2ccccc2c1` (centres undefined), the carcinogen call (mouse, strain CF-1, females, in feed, site: liver, lesion: one or several types, types not named, dosed 78 weeks, study length 78 weeks) is “negative (inactive)” and the carcinogen call (mouse, strain CF-1, males, in feed, site: liver, lesion: carcinoma, dosed 78 weeks, study length 78 weeks) was “negative (inactive)”. Besides, the TD50 was 1300 mg/kg/day (inactive) (mouse, strain CF-1, females, in feed, site: lung, lesion: adenoma, dosed 78 weeks, study length 78 weeks); 1820 mg/kg/day (inactive) (mouse, strain CF-1, males, in feed, site: liver, lesion: adenoma, dosed 78 weeks, study length 78 weeks); 931 mg/kg/day (inactive) (mouse, strain CF-1, males, in feed, site: lung, lesion: adenoma, dosed 78 weeks, study length 78 weeks); 408 mg/kg/day (mouse, strain Not specified, females, in feed, site: thymus gland, lesion: one or several types, types not named, dosed 64 weeks, study length 64 weeks); 1930 mg/kg/day (mouse, strain Not specified, males, in feed, site: thymus gland, lesion: one or several types, types not named, dosed 64 weeks, study length 64 weeks).
Consider `Clc1ccc2c(c1)Oc1ccc(Cl)cc1O2`, for which the carcinogen call is “negative (inactive)” (mouse, strain B6C3F1, females, in feed, site: any site (literature study), lesion: several types, types named in the paper, dosed 90 weeks, study length 91 weeks); “negative (inactive)” (rat, strain Osborne-Mendel, females, in feed, site: any site (literature study), lesion: several types, types named in the paper, dosed 110 weeks, study length 110 weeks); “negative (inactive)” (rat, strain Osborne-Mendel, males, in feed, site: any site (literature study), lesion: several types, types named in the paper, dosed 110 weeks, study length 110 weeks). Also, the TD50 (mouse, strain B6C3F1, males, in feed, site: all sites, lesion: hemangioma + hemangiosarcoma, dosed 90 weeks, study length 92 weeks) is 2750 mg/kg/day; the TD50 (mouse, strain B6C3F1, males, in feed, site: all sites, lesion: leukemia + lymphoma, dosed 90 weeks, study length 92 weeks) was 1920 mg/kg/day; the TD50 (mouse, strain B6C3F1, males, in feed, site: any site (literature study), lesion: several types, types named in the paper, dosed 90 weeks, study length 92 weeks) turned out to be 2910 mg/kg/day; the TD50 (mouse, strain B6C3F1, males, in feed, site: liver, lesion: hepatocellular adenoma + hepatocellular carcinoma + neoplastic nodule, dosed 90 weeks, study length 92 weeks) was 2120 mg/kg/day; the TD50 (mouse, strain B6C3F1, males, in feed, site: liver, lesion: hepatocellular adenoma + hepatocellular carcinoma, dosed 90 weeks, study length 92 weeks) is 2120 mg/kg/day; the TD50 (rat, strain Osborne-Mendel, males, in feed, site: liver, lesion: hepatocellular adenoma + hepatocellular carcinoma + neoplastic nodule, dosed 110 weeks, study length 110 weeks) is 12900 mg/kg/day.

Source of the values: PubChem BioAssay AID1745844 (Carcinogenic Potency Database (CPDB), 2022).
